Like-named read-outs stand apart in the source and are kept apart here.
Assays:
HDAC8 = molecular target: T1, HDAC8 (Homo sapiens, UniProt Q9BY41); experiment: HDAC biochemical activity measurement (fluorescent substrate deacetylation); settings: 37° C. 30 minutes
T1 sequence (Q9BY41 1-377): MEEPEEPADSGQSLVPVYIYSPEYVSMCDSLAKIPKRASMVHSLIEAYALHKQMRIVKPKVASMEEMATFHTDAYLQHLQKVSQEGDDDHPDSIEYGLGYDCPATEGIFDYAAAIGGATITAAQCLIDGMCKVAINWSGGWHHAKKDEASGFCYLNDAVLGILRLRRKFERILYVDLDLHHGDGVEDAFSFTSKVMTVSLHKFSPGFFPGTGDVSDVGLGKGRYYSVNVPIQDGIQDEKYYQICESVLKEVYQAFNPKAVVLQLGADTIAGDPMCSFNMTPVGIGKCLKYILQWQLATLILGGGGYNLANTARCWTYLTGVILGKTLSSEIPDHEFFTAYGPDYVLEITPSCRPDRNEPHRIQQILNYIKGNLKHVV

HDAC11 = molecular target: T2, HDAC11 (Homo sapiens, UniProt Q96DB2); experiment: as above;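 further: HDAC11 enzyme acting on an acetyl-lysine fluorogenic substrate, then a developer frees the fluorophore, read at excitation 360 nm and emission 460 nm, IC50 over a compound dilution series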
T2 sequence (Q96DB2 1-347): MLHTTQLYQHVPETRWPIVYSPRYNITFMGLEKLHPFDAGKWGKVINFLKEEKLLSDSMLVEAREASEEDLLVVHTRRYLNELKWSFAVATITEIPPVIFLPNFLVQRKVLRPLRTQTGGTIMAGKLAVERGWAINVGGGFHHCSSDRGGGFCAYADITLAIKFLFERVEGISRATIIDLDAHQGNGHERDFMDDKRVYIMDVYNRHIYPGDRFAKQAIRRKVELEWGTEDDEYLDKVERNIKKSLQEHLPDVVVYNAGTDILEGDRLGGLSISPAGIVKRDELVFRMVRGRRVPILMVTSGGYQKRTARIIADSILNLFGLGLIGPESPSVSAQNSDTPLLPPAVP

HDAC1 = HDAC1 (Homo sapiens, UniProt Q13547); experiment: as above
[1] = test system: DU145 (human prostate cancer cells); experiment: MTT cancer cell growth inhibition; format: cell-based; settings: Homo sapiens, DU-145, 72 h, MTT
In short: (§1)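 Cells seeded at 1500/well in DMEM or RPMI 1640 with 10% FBS, incubated overnight, then exposed to compound at 10^−5 to 10^−10 M final in triplicate for 72 h at 37° C, 5% CO2. MTT added for 4 h, formazan dissolved in DMSO, absorbance read at 570 nm; GI50 derived from viability.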

[2] = test system: HCC827 (human non-small cell lung cancer cells); experiment: MTT cancer cell growth inhibition; format: cell-based; settings: Homo sapiens, HCC827, 72 h, MTT, 72 hours incubation, HCC827 cells; read-out: GI50 HCC827
In short: as §1

[3] = test system: PANC-1 (Pac-1, human pancreatic cancer cells); experiment: MTT cancer cell growth inhibition; format: cell-based; settings: Homo sapiens, PANC-1, 72 h, MTT
In short: as §1

[4] = test system: Hela (human cervical cancer cells); experiment: MTT cancer cell growth inhibition; format: cell-based; settings: Homo sapiens, HeLa, 72 h, MTT
In short: as §1

[5] = test system: MOLT-4 (human acute lymphoblastic leukemia cells); experiment: MTT cancer cell growth inhibition; format: cell-based; settings: Homo sapiens, MOLT-4, 72 h, MTT
In short: as §1

[6] = test system: U937 (human leukemia cells); experiment: MTT cancer cell growth inhibition; format: cell-based; settings: Homo sapiens, U-937, 72 h, MTT
In short: as §1

[7] = test system: Bel-7402 (human hepatoma cells); experiment: MTT cancer cell growth inhibition; format: cell-based; settings: Homo sapiens, Bel-7402, 72 h, MTT, 72 hours incubation, Bel-7402 cells; read-out: GI50 Bel-7402
In short: as §1

[8] = test system: HT1080 (human fibrosarcoma cells); experiment: MTT cancer cell growth inhibition; format: cell-based; settings: Homo sapiens, HT-1080, 72 h, MTT
In short: as §1

[9] = test system: Huh-7 (human hepatoma cells); experiment: MTT cancer cell growth inhibition; format: cell-based; settings: Homo sapiens, Huh-7, 72 h, MTT, 72 hours incubation, Huh-7 cells; read-out: GI50 Huh-7
In short: as §1

[10] = test system: SGC-7901 (human gastric cancer cells); experiment: MTT cancer cell growth inhibition; format: cell-based; settings: Homo sapiens, SGC-7901, 72 h, MTT, 72 hours incubation, SGC-7901 cells; read-out: GI50 SGC-7901
In short: as §1

[11] = test system: MCF-7 (human breast cancer cells); experiment: MTT cancer cell growth inhibition; format: cell-based; settings: Homo sapiens, MCF7, 72 h
In short: as §1

[12] = test system: N-87 (human gastric cancer cells); experiment: MTT cancer cell growth inhibition; format: cell-based; settings: Homo sapiens, 72 h, MTT, 72 hours incubation, N-87 cells; read-out: GI50 N-87
In short: as §1

[13] = test system: BGC-823 (human gastric cancer cells); experiment: MTT cancer cell growth inhibition; format: cell-based; settings: Homo sapiens, BGC-823, 72 h, MTT
In short: as §1

[14] = test system: A549 (human lung cancer cells); experiment: MTT cancer cell growth inhibition; format: cell-based; settings: Homo sapiens, A549, 72 h, MTT
In short: as §1

[15] = test system: MDA-MB-231 (breast cancer cells); experiment: MTT cancer cell growth inhibition; format: cell-based; settings: Homo sapiens, MDA-MB-231, 72 h, read-out: GI50 MDA-MB-231, MTT, 72 hours incubation, MDA-MB-231 cells
In short: as §1

[16] = HDAC1, 37° C. 30 minutes, read-out: IC50 HDAC1
[17] = 72 hours incubation, read-out: GI50 Du1
[18] = 72 hours incubation, read-out: GI50 PAN
[19] = 72 hours incubation, read-out: GI50 Hela
[20] = 72 hours incubation, read-out: GI50 Mol
[21] = 72 hours incubation, read-out: GI50 U93
[22] = 72 hours incubation, read-out: GI50 HT1
[23] = 72 hours incubation, read-out: GI50 MCF
[24] = 72 hours incubation, read-out: GI50 BG
[25] = 72 hours incubation, read-out: GI50 A54
[26] = read-out: IC50 HDAC11, HDAC11, 37° C. 30 minutes
[27] = DU145 cells, 72 hours incubation, read-out: GI50 Du1
[28] = PANC-1 cells, 72 hours incubation, read-out: GI50 PAN
[29] = Hela cells, 72 hours incubation, read-out: GI50 Hela
[30] = MOLT-4 cells, 72 hours incubation, read-out: GI50 Mol
[31] = U937 cells, 72 hours incubation, read-out: GI50 U93
[32] = HT1080 cells, 72 hours incubation, read-out: GI50 HT1
[33] = MCF-7 cells, 72 hours incubation, read-out: GI50 MCF
[34] = BGC-823 cells, 72 hours incubation, read-out: GI50 BG
[35] = A549 cells, 72 hours incubation, read-out: GI50 A54
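Wherever IC50 HDAC1 is given: fluorogenic acetyl-lysine substrate (20 µM) deacetylated by HDAC1, then developer releases fluorophore read at 360 nm excitation and 460 nm emission, inhibitor incubated 30 min at 37 °C.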
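Wherever IC50 HDAC1, C (six-membered ring with substituents) is given: fluorogenic acetyl-lysine substrate (20 µM) deacetylated by HDAC1, then developer releases fluorophore read at 360 nm excitation and 460 nm emission, inhibitor incubated 30 min at 37 °C.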
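Wherever IC50 HDAC1, a (compounds of the present invention) is given: fluorogenic acetyl-lysine substrate (20 µM) deacetylated by HDAC1, then developer releases fluorophore read at 360 nm excitation and 460 nm emission, inhibitor incubated 30 min at 37 °C.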

Chain of HDAC1 (Q13547 whole entry, species assumed): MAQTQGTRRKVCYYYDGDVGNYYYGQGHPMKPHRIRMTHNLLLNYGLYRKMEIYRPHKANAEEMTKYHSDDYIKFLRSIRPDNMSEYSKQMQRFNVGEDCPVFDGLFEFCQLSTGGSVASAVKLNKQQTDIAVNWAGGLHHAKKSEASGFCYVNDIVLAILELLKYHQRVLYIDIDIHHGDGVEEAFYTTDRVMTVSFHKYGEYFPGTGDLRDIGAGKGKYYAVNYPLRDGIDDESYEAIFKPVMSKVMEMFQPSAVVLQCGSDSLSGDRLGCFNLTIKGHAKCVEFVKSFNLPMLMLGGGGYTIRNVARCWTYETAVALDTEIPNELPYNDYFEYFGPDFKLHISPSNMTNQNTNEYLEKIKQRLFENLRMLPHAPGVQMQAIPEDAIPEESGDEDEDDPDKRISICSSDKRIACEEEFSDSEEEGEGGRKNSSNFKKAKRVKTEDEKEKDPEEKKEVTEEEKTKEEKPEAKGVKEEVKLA

| SMILES | IC50 (HDAC8) | IC50 (HDAC11) | IC50 (HDAC1; [16]) | GI50 [1, 17] | GI50 [2] | GI50 [3, 18] | GI50 [4, 19] | GI50 [5, 20] | GI50 [6, 21] | GI50 [7] | GI50 [8, 22] | GI50 [9] | GI50 [10] | GI50 [11, 23] | GI50 [12] | GI50 [13, 24] | GI50 [14, 25] | GI50 [15] | further results |
| --- | --- | --- | --- | --- | --- | --- | --- | --- | --- | --- | --- | --- | --- | --- | --- | --- | --- | --- | --- |
| C/C=C1\NC(=O)c2cc(F)cc(n2)CNC(=O)C[C@@H](/C=C/CCSC(C)=O)OC(=O)[C@H](CC)NC1=O [Compound 58] | 51 nM |  | 32 nM | 20 nM | 49 nM | 40 nM | 60 nM | 30 nM | 60 nM | 49 nM | 40 nM | 39 nM | 51 nM | 80 nM | 61 nM | 60 nM | 50 nM | 39 nM | IC50 (HDAC11; [26]): 97 nM; IC50 (HDAC1; Table 3, column C, read-out: IC50 HDAC1, C (six-membered ring with substituents)): 32 nM |
| C/C=C1\NC(=O)c2nc(ccc2F)CNC(=O)C[C@@H](/C=C/CCSC(=O)CCCCCCC)OC(=O)[C@H](C)NC1=O [Example 60] | 53 nM | 88 nM | 81 nM | 20 nM | 57 nM | 50 nM | 70 nM | 10 nM | 40 nM | 57 nM | 50 nM | 19 nM | 43 nM | 80 nM | 63 nM | 60 nM | 40 nM | 19 nM |  |
| C/C=C1\NC(=O)c2cccc(n2)CNC(=O)C[C@@H](/C=C/CCSC(=O)CCCCCCC)OC(=O)[C@@H](C)NC1=O [Compound 236] | 67 nM |  | 43 nM |  | 26 nM |  |  |  |  | 75 nM |  | 67 nM | 48 nM |  | 26 nM |  |  | 17 nM | IC50 (HDAC11; [26]): 72 nM; IC50 (HDAC1; Table 2, read-out: IC50 HDAC1, a (compounds of the present invention)): < 50 nM; GI50 [1, 27]: 90 nM; GI50 ([1]; 72 hours, present invention, read-out: GI50 Du145, a): 91 nM; GI50 ([3]; 72 hours, present invention, read-out: GI50 PANC-1, a): 210 nM; GI50 [3, 28]: 210 nM; GI50 [4, 29]: 810 nM; GI50 ([4]; 72 hours, present invention, read-out: GI50 Hela, a): 810 nM; GI50 [5, 30]: 860 nM; GI50 ([5]; 72 hours, present invention, read-out: GI50 Molt-4, a): 860 nM; GI50 ([6]; 72 hours, present invention, read-out: GI50 U937, a): 77 nM; GI50 [6, 31]: 70 nM; GI50 [8, 32]: 190 nM; GI50 ([8]; 72 hours, present invention, read-out: GI50 HT1080, a): 197 nM; GI50 ([11]; 72 hours, present invention, read-out: GI50 MCF7, a): 760 nM; GI50 [11, 33]: 760 nM; GI50 [13, 34]: 90 nM; GI50 ([13]; 72 hours, present invention, read-out: GI50 BGC823, a): 93 nM; GI50 [14, 35]: 510 nM; GI50 ([14]; 72 hours, present invention, read-out: GI50 A549, a): 510 nM |
| C/C=C1\NC(=O)c2cc(SCCC)cc(n2)CNC(=O)C[C@@H](/C=C/CCSC(=O)CCCCCCC)OC(=O)[C@H](CC)NC1=O [Compound 175] | 69 nM | 55 nM | 41 nM |  | 13 nM |  |  |  |  | 105 nM |  | 27 nM | 62 nM |  | 49 nM |  |  | 29 nM | GI50 [1, 27]: 30 nM; GI50 [3, 28]: 50 nM; GI50 [4, 29]: 10 nM; GI50 [5, 30]: 20 nM; GI50 [6, 31]: 40 nM; GI50 [8, 32]: 50 nM; GI50 [11, 33]: 20 nM; GI50 [13, 34]: 20 nM; GI50 [14, 35]: 100 nM |

Second part, led by results:

| IC50 (HDAC8) | IC50 (HDAC11) | IC50 (HDAC1; [16]) | GI50 [1, 17] | GI50 [2] | GI50 [3, 18] | GI50 [4, 19] | GI50 [5, 20] | GI50 [6, 21] | GI50 [7] | GI50 [8, 22] | GI50 [9] | GI50 [10] | GI50 [11, 23] | GI50 [12] | GI50 [13, 24] | GI50 [14, 25] | GI50 [15] | SMILES | further results |
| --- | --- | --- | --- | --- | --- | --- | --- | --- | --- | --- | --- | --- | --- | --- | --- | --- | --- | --- | --- |
| 47 nM | 97 nM | 93 nM | 40 nM | 59 nM | 4070 nM | 390 nM | 2060 nM | 120 nM | 84 nM | 50 nM | 82 nM | 53 nM | 1110 nM | 39 nM | 5880 nM | 1030 nM | 92 nM | C/C=C1\NC(=O)c2cccc(n2)NC(=O)C[C@@H](/C=C/CCSC(C)=O)OC(=O)[C@H](C(C)C)NC1=O [Example 22] |  |
| 64 nM | 94 nM | 91 nM | 11700 nM | 55 nM | 770 nM | 37000 nM | 3350 nM | 9500 nM | 97 nM | 18000 nM | 51 nM | 37 nM | 53700 nM | 39 nM | 5400 nM | 38900 nM | 98 nM | C/C=C1\NC(=O)c2cccc(n2)CCNC(=O)C[C@@H](/C=C/CCSC(C)=O)OC(=O)[C@H](C(C)C)NC1=O [Example 26] |  |
| 29 nM | 91 nM | 41 nM | 50 nM | 94 nM | 90 nM | 90 nM | 40 nM | 30 nM | 94 nM | 90 nM | 49 nM | 51 nM | 50 nM | 59 nM | 50 nM | 50 nM | 49 nM | C/C=C1\NC(=O)c2nc(ccc2F)CNC(=O)C[C@@H](/C=C/CCSC(C)=O)OC(=O)[C@H](C)NC1=O [Example 63] |  |

Reference: patent US10065990B2, “Cyclic peptide compound, and preparation method, pharmaceutical composition and use thereof” (HANGZHOU GUANYU BIO-MEDICAL CO., LTD, priority 2013, dated 2018)
